# Where a SMILES comes first, the peptide text is derived from it. Bridges are numbered along the chain shown (N, C = ends). Where no end group is shown, it is not given here.
# Key:
# [1] = target: T1, HIV-1 integrase (Human immunodeficiency virus type 1 group M subtype B, UniProt P04585); assay: biochemical
# T1 construct: Integrase is a 32 kDA viral protein that is biologically active under a multimeric form
# Protocol: The simultaneous measurement of integrase-DNA interaction and subsequent 3′-processing activity by steady-state fluorescence anisotropy was performed as described in Guiot et al. (2006). […] After the initial DNA-binding step (performed at 25° C.), the 3′-processing activity was measured at 37° C. by fixed-time experiments: The reaction was stopped at varying times by adding SDS (0.25% final) which disrupts all IN-DNA complexes in the sample. The IN-mediated cleavage of the terminal GT dinucleotide (labeled by fluorescein on the 3′-end) leads to a significant decrease of r as compared to the r value corresponding to the fluorescein-labeled unprocessed DNA substrate. The fraction of released dinucleotide is calculated by using Eq. (1): […]
# [2] = system: HIV-1-LAI strain; details: for IC50, block of viral proliferation (in words): peptide associated with Pep-1
# Protocol: The anti-HIV activities of the peptides were assayed according to the methods described in Roisin et al. (2004). Phytohemagglutinin-P(PHA-P)-activated peripheral blood mononuclear cells (PBMC) treated by increasing concentrations of peptide (from 100 to 0.1 nM), one hour later, were infected with hundred 50% tissue culture infectious doses (TCID50) per 100,000 cells of the HIV-1-LAI strain (Barre-Sinoussi et al., 1983). This virus was amplified in vitro on PHA-P-activated PBMC. Viral stock was titrated using PHA-P-activated PBMC, and 50% TCID50 were calculated using Kärber's formula (Kärber, 1931). Samples were maintained throughout the culture, and cell supernatants were collected at day 7 post-infection and stored at −20° C. Viral replication was measured by quantifying reverse transcriptase (RT) activity in cell culture supernatants. In parallel, cytotoxicity of the compounds was evaluated in uninfected PHA-P-activated PBMC by colorimetric 3-(4-5 dimethylthiazol-2-yl)2,5diphenyl tetrazolium bromite (MTT) assay on day 7 (as described in Mossmann, 1983). Experiments were performed in triplicate and repeated with another blood donor. Data analyses were performed using SofiMax® Pro 4.6 microcomputer software: percent of inhibition of RT activity or of cell viability were plotted vs concentration and fitted with quadratic curves; 50% effective doses (ED50) and cytotoxic doses (CD50) were calculated.
# In order to avoid any limitation due to the poor ability of peptides to cross cellular membranes, they were associated to the peptide-based nanoparticle delivery system Pep-1 (SEQ ID NO: 29), at a 1/10 molar ratio.
# [3] = target: T1, HIV-1 integrase; assay: biochemical; type: binding
# Protocol: Fluorescein-labeled peptides (40 nM) were mixed with varying concentrations of integrase in 20 mM Tris pH 7.2, 50 mM NaCl, 10 mM MgCl2, and the r values were recorded.
# Effect of the different peptides on the integrase (IN) activity, DNA binding and IN/DNA dissociation were evaluated as described in Example III.1 above, using fluorescence polarization and anisotropy measurements. Binding constant of the peptide for IN was determined by steady state fluorescence and anisotropy.
# [4] = target: T2, HIV-1 RT (Human immunodeficiency virus type 1 group M subtype B, UniProt P03366); assay: biochemical
# T2 construct: The heterodimeric p66/p51 RT was eluted with an imidazole gradient; p66 and p51 derived from p66 by proteolytic cleavage of the C-terminal RNAse H domain; made in house; host or cells: E. coli (M15 for the His-tagged subunits)
# Protocol: RNA-dependent-DNA RT-polymerase activity was measured in a standard reaction assay using poly(rA)-(dT)15 as template/primer as described in Restle et al. (1990). Ten microliters of reverse transcriptase (RT) at 20 nM was incubated at 37° C. for 30 min with 20 μL of reaction buffer (50 mM Tris, pH 8.0, 80 mM KCl, 6 mM MgCl2, 5 mM DTT, 0.15 μM poly(rA-dT), 15 μM dTTP, 0.3 μCi 3H-dTTP). For peptide evaluation, HIV-1 RT was incubated with increasing concentrations of peptide inhibitors for […], and polymerase reaction was initiated by adding reaction buffer. Reactions were stopped by precipitation of nucleic acids with 5 ml of 20% trichloroacetic acid (TCA) solution for 2 h on ice, then filtered using a multiwell-sample collector (Millipore), and washed with 5% TCA solution. Filters were dried at 55° C. for 30 min and radionucleotide incorporation was determined by liquid scintillation spectrometry.
# A series of peptides have been derived from Pep-A sequence (SEQ ID NO: 28), which is derived from HIV-1 reverse transcriptase. First, P1 peptide (SEQ ID NO: 1) was obtained by removing the N-terminal arginine of Pep-A. Then, additional peptides were generated by performing an alanine scan on P1. P1-derived peptides were evaluated using a standard polymerase RT assay. Reported data correspond to the mean of three separate experiments.
Compound,Ki [4],other results
CC[C@H](C)[C@@H]1NC(=O)[C@H](Cc2c[nH]c3ccccc23)NC(=O)[C@H](CCC(=O)O)NC(=O)[C@H]([C@@H](C)O)NC(=O)[C@H](CC(C)C)NC(=O)[C@H](Cc2c[nH]c3ccccc23)NC(=O)[C@H](CCCCN)NC(=O)[C@H]([C@@H](C)O)NC(=O)CNC(=O)[C@@H](N)CSSC[C@@H](C(=O)O)NC(=O)[C@H](CCC(=O)O)NC(=O)[C@H](C)NC(=O)[C@H]([C@@H](C)O)NC(=O)[C@H](CC(C)C)NC(=O)[C@@H]2CCCN2C1=O [Peptide P27C1] (H-CGTKWLTEWIPLTAEC-OH; disulfide 1-16),0.042 µM,"Ki [1]: > 100 µM; EC50 ([2]; read-out: EC50 HIV-1 lai, Table 10): 0.17 nM; Kd [3]: > 100 µM"
KWLTEWIPLTAE [Peptide P29],1 ± 0.4 µM,
"CC[C@H](C)[C@H](NC(=O)[C@@H](NC(=O)[C@H](CCC(=O)O)NC(=O)[C@@H](NC(=O)[C@H](CC(C)C)NC(=O)[C@H](C)NC(=O)[C@H](CCCCN)NC(=O)[C@@H](NC(=O)CNC(=O)[C@@H](N)CCCNC(=N)N)[C@@H](C)O)[C@@H](C)O)C(C)C)C(=O)N1CCC[C@H]1C(=O)N[C@@H](CC(C)C)C(=O)N[C@H](C(=O)N[C@@H](CCC(=O)O)C(=O)N[C@@H](CCC(=O)O)C(=O)N[C@@H](C)C(=O)N[C@@H](CCC(=O)O)C(=O)O)[C@@H](C)O [Pep-A, reference compound]",35 µM,antiviral activity (in words) ([2]; associated to Pep-1): no antiviral activity
GTKALAEVIPLTEEAE [Peptide P7],13.5 ± 2.1 µM,
GTKAWTEVWPL [Peptide P17],35 ± 11 µM,reduction of efficiency (higher Ki) relative to PAW ([4]; relative to PAW): 50 fold
GTKALTEAIPLTEEAE [Peptide P9],15 ± 7.3 µM,
CC[C@H](C)[C@H](NC(=O)[C@@H](NC(=O)[C@H](CCC(=O)O)NC(=O)[C@@H](NC(=O)[C@H](CC(C)C)NC(=O)CNC(=O)[C@H](CCCCN)NC(=O)[C@@H](NC(=O)CN)[C@@H](C)O)[C@@H](C)O)C(C)C)C(=O)N1CCC[C@H]1C(=O)N[C@@H](CC(C)C)C(=O)N[C@H](C(=O)N[C@@H](CCC(=O)O)C(=O)N[C@@H](CCC(=O)O)C(=O)N[C@@H](C)C(=O)N[C@@H](CCC(=O)O)C(=O)O)[C@@H](C)O [Peptide P5],20 ± 3.7 µM,
GTKALTEVIPATEEAE [Peptide P12],22 ± 3 µM,
GTKAATEVIPLT [Peptide P19],49 ± 9 µM,
GTKWATEWAPLTAEAE [Peptide P28],2 ± 0.6 µM,
CC[C@H](C)[C@H](NC(=O)[C@@H](NC(=O)[C@H](CCC(=O)O)NC(=O)[C@@H](NC(=O)[C@H](CC(C)C)NC(=O)[C@H](C)NC(=O)[C@H](CCCCN)NC(=O)[C@@H](NC(=O)CN)[C@@H](C)O)[C@@H](C)O)C(C)C)C(=O)N1CCC[C@H]1C(=O)N[C@@H](CC(C)C)C(=O)N[C@H](C(=O)N[C@@H](C)C(=O)N[C@@H](CCC(=O)O)C(=O)N[C@@H](C)C(=O)N[C@@H](CCC(=O)O)C(=O)O)[C@@H](C)O [Peptide P14],14 ± 3 µM,
GAKTETLVIPETELEA [Pscramble],61 ± 12 µM,
CC[C@H](C)[C@H](NC(=O)[C@@H](NC(=O)[C@H](CCC(=O)O)NC(=O)[C@@H](NC(=O)[C@H](CC(C)C)NC(=O)[C@H](C)NC(=O)[C@H](CCCCN)NC(=O)[C@@H](NC(=O)CN)[C@@H](C)O)[C@@H](C)O)C(C)C)C(=O)N1CCC[C@H]1C(=O)N[C@@H](CC(C)C)C(=O)N[C@H](C(=O)N[C@@H](CCC(=O)O)C(=O)N[C@@H](CCC(=O)O)C(=O)N[C@@H](C)C(=O)N[C@@H](CCC(=O)O)C(=O)O)[C@@H](C)O [Peptide P1],7.5 µM,"IC50, block of viral proliferation (in words) [2]: low μM range; increase in potency to inhibit RT polymerase over Pep-A ([4]; relative to Pep-A): 5 fold"
GTKAATEVIPLTEEAE [Peptide P6],5.7 µM,"IC50, block of viral proliferation (in words) [2]: low μM range"
GTKALTEVIPLAEEAE [Peptide P13],10.2 ± 2.5 µM,
CC[C@H](C)[C@H](NC(=O)[C@@H](NC(=O)[C@H](CCC(=O)O)NC(=O)[C@@H](NC(=O)[C@H](CC(C)C)NC(=O)[C@H](C)NC(=O)[C@H](C)NC(=O)[C@@H](NC(=O)CN)[C@@H](C)O)[C@@H](C)O)C(C)C)C(=O)N1CCC[C@H]1C(=O)N[C@@H](CC(C)C)C(=O)N[C@H](C(=O)N[C@@H](CCC(=O)O)C(=O)N[C@@H](CCC(=O)O)C(=O)N[C@@H](C)C(=O)N[C@@H](CCC(=O)O)C(=O)O)[C@@H](C)O [Peptide P4],15 ± 2.9 µM,
CC[C@H](C)[C@H](NC(=O)[C@@H](NC(=O)[C@H](CCC(=O)O)NC(=O)[C@@H](NC(=O)[C@H](CC(C)C)NC(=O)[C@H](C)NC(=O)[C@H](CCCCN)NC(=O)[C@@H](NC(=O)[C@H](C)N)[C@@H](C)O)[C@@H](C)O)C(C)C)C(=O)N1CCC[C@H]1C(=O)N[C@@H](CC(C)C)C(=O)N[C@H](C(=O)N[C@@H](CCC(=O)O)C(=O)N[C@@H](CCC(=O)O)C(=O)N[C@@H](C)C(=O)N[C@@H](CCC(=O)O)C(=O)O)[C@@H](C)O [Peptide P2],28 ± 11 µM,
CC[C@H](C)[C@H](NC(=O)[C@@H](NC(=O)[C@H](CCC(=O)O)NC(=O)[C@@H](NC(=O)[C@H](CC(C)C)NC(=O)[C@H](C)NC(=O)[C@H](CCCCN)NC(=O)[C@@H](NC(=O)CN)[C@@H](C)O)[C@@H](C)O)C(C)C)C(=O)N1CCC[C@H]1C(=O)N[C@@H](CC(C)C)C(=O)N[C@H](C(=O)O)[C@@H](C)O [Peptide P18],53 ± 12 µM,inhibition of RT polymerase activity (in words) [4]: does not inhibit RT polymerase activity
GTKALTEVIALTEEAE [Peptide P11],7 µM,"IC50, block of viral proliferation (in words) [2]: low μM range"
CC[C@H](C)[C@H](NC(=O)[C@@H](NC(=O)[C@H](CCC(=O)O)NC(=O)[C@@H](NC(=O)[C@H](CC(C)C)NC(=O)[C@H](C)NC(=O)[C@H](CCCCN)NC(=O)[C@@H](NC(=O)CN)[C@@H](C)O)[C@@H](C)O)C(C)C)C(=O)N1CCC[C@H]1C(=O)N[C@@H](CC(C)C)C(=O)N[C@H](C(=O)N[C@@H](CCC(=O)O)C(=O)N[C@@H](C)C(=O)N[C@@H](C)C(=O)N[C@@H](CCC(=O)O)C(=O)O)[C@@H](C)O [Peptide P15],14 ± 2.2 µM,
CC[C@H](C)[C@H](NC(=O)[C@@H](NC(=O)[C@H](CCC(=O)O)NC(=O)[C@@H](NC(=O)[C@H](CC(C)C)NC(=O)[C@H](C)NC(=O)[C@H](CCCCN)NC(=O)[C@H](C)NC(=O)CN)[C@@H](C)O)C(C)C)C(=O)N1CCC[C@H]1C(=O)N[C@@H](CC(C)C)C(=O)N[C@H](C(=O)N[C@@H](CCC(=O)O)C(=O)N[C@@H](CCC(=O)O)C(=O)N[C@@H](C)C(=O)N[C@@H](CCC(=O)O)C(=O)O)[C@@H](C)O [Peptide P3],10.3 ± 2.1 µM,
GTKALTEVAPLTEEAE [Peptide P10],7.3 µM,"IC50, block of viral proliferation (in words) [2]: low μM range"

# From US20110294728A1, “Antiviral Polypeptides” (priority 2008, published 2011)
